Columns and labels:
SmTGR WT [1] = molecular target: T1, SmTGR WT (Schistosoma mansoni, UniProt Q962Y6); assay: biochemical
SmTGR-U597C = SmTGR-U597C (Schistosoma mansoni, UniProt Q962Y6); assay: X-ray crystallography fragment soaking and co-crystallization; assay type: binding; conditions: crystal structure of SmTGR-U597C, soaking or co-crystallization
SmTGR-E330A/D334A = SmTGR-E330A/D334A (Schistosoma mansoni, UniProt Q962Y6, D334A/E330A); assay: DTNB assay on SmTGR-E330A/D334A double mutant; assay type: biochemical; conditions: 500 μM compound
SmTGR-E337A = molecular target: T2, SmTGR-E337A (Schistosoma mansoni, UniProt Q962Y6, E337A); assay: biochemical
T2 sequence (Q962Y6 1-598 E337A): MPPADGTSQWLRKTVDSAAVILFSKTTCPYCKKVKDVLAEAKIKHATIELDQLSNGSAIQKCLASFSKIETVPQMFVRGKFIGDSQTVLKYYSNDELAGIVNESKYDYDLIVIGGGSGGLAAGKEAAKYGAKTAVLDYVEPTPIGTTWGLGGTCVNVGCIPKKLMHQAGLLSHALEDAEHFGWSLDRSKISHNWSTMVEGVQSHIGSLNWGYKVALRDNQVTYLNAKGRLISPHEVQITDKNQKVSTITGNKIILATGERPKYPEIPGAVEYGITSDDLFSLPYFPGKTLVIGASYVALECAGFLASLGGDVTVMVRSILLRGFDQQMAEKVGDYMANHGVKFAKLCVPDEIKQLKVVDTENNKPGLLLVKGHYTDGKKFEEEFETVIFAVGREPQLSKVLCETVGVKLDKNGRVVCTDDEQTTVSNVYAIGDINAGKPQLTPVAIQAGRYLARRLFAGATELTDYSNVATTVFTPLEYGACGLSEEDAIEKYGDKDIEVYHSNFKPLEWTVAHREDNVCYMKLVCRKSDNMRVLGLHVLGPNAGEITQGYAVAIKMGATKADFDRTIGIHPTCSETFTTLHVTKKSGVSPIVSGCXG

SmTGR WT [2] = molecular target: T1, SmTGR WT; assay: Steady-state competition experiments versus NADPH; assay type: biochemical; conditions: upon increasing compound concentration from 0 to 3 mM

| SMILES | IC50 (SmTGR WT [1]) | Binding site (SmTGR-U597C) | inhibition at 500 µM (SmTGR WT [1]; read-out: % of inhibition at 500 μM) | percentage of inhibition at 500 μM (SmTGR-E330A/D334A) | IC50 (SmTGR-E337A) | decrease of Vmax (SmTGR WT [2]) |
| --- | --- | --- | --- | --- | --- | --- |
| COc1nc2ccccc2nc1CCC(=O)O [Compound 1, 3-(3-methoxyquinoxalin-2-yl)propanoic acid] | > 3000 µM | Site 1 (both insoakingand in co-crystallization experiments) | – | – | – | – |
| Nc1cccc2nsnc12 [Compound 3, 4-aminopiazthiole] | ~500 µM | Site 2 | 51.4 ± 4.1% | 48.1 ± 6.2% | – | – |
| OCc1c[nH]c2ccccc12 [Compound 4, indole-3-carbinol] | 284 ± 12 µM | Site 2 | – | – | 283 ± 15 µM | – |
| Cc1[nH]c2ccccc2c1CC(=O)O [Compound 2, 2-methylindole-3-acetic acid] | > 1000 µM | Site 1 | – | – | – | ~ 10% |
| Cc1ccc2c(O)c(C(=O)O)cnc2n1 [Compound 5, 4-hydroxy-7-methyl-1,8-naphthyridine-3-carboxylic acid] | – | Site 3 | – | – | – | – |

— article PMC8273128 (ACS infectious diseases, 2021)
